Test [1] concerns Aβ40. The test can be described thus: Cellular Aβ-lowering assay. The following applies: HEK293 cells stably expressing human APP695, Aβ40 in supernatant by ELISA after 18-20 hrs; read-out: Cellular assay Abeta40 IC50. The class given is cell-based. As for the experimental part:
Cellular Aβ-Lowering Assay:
Human HEK293 cells which are stably transfected with a vector expressing a cDNA of the human APP wt gene (APP695) were used to assess the potency of the compounds in a cellular assay. The cells were seeded in 96-well microtiter plates in cell culture medium (Iscove, plus 10% (v/v) fetal bovine serum, glutamine, penicillin/streptomycin) to about 80% confluence and the compounds were added at a 10× concentration in 1/10 volume of medium without FCS containing 8% DMSO (final concentration of DMSO was kept at 0.8% v/v). After 18-20 hrs incubation at 37° C. and 5% CO2 in a humidified incubator the culture supernatant was harvested for the determination of Aβ40 concentrations. 96well ELISA plates (e.g., Nunc MaxiSorb) were coated with monoclonal antibody which specifically recognize the C-terminal end of Aβ40 (Brockhaus et al., NeuroReport 9, 1481-1486; 1998). After blocking of non-specific binding sites with e.g. 1% BSA and washing, the culture supernatants were added in suitable dilutions together with a horseradish peroxidase-coupled Aβ detection antibody (e.g., antibody 4G8, Senetek, Maryland Heights, Mo.) and incubated for 5 to 7 hrs. Subsequently the wells of the microtiter plate were washed extensively with Tris-buffered saline containing 0.05% Tween 20 and the assay was developed with tetramethylbenzidine/H2O2 in citric acid buffer. After stopping the reaction with one volume 1 N H2SO4 the reaction was measured in an ELISA reader at 450 nm wavelength. The concentrations of Aβ in the culture supernatants were calculated from a standard curve obtained with known amounts of pure Aβ peptide.
In general terms: ELISA stands for enzyme-linked immunosorbent assay.

The target in test [2] is T1, endogenous cellular BACE2 (Rattus norvegicus, UniProt Q6IE75).
T1 construct: endogenous cellular BACE2 in the Ins1e rat cell line; endogenous in cells; host or cells: INS-TMEM27 (INS1e-derived rat insulinoma cell line with doxycycline-inducible full-length human TMEM27)
T1 sequence (Q6IE75 63-514): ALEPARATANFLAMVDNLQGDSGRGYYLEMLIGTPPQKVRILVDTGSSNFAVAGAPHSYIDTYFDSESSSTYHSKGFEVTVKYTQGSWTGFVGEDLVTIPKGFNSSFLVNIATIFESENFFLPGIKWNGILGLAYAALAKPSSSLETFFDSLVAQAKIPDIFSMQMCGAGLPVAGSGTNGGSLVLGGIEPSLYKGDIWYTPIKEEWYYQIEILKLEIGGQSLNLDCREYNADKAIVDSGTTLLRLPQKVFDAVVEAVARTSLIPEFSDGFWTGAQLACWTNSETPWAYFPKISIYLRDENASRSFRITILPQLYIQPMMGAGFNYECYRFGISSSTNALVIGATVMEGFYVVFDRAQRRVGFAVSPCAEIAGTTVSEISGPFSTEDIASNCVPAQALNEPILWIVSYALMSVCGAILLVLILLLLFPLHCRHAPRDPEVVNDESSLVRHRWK
The test can be described thus: Assay for BACE inhibition by measuring cellular TMEM27 cleavage. The class given is cell-based. The following applies: INS-TMEM27 (INS1e-derived) cells, shed human TMEM27 in supernatant by ELISA. An excerpt: Assay for BACE Inhibition by Measuring Cellular TMEM27 Cleavage:
The assay uses the principle of inhibition of human TMEM27 cleavage by endogenous cellular BACE2 in the Ins1e rat cell line and shedding from the cell surface into the culture medium, followed by detection in an ELISA assay. Inhibition of BACE2 prevents the cleavage and shedding in a dose-dependent manner.
The stable cell line “INS-TMEM27” represents an INS1e-derived cell line with inducible expression (using the TetOn system) of full-length hTMEM27 in a doxycycline-dependent manner. The cells are cultured throughout the experiment in RPMI1640+ Glutamax (Invitrogen) Penicillin/Streptomycin, 10% Fetal bovine serum, […], […], 100 micrograms/ml G418 and 100 microgram/ml hygromycin and are grown inadherent culture at 37° C. in a standard CO2 cell culture incubator.
INS-TMEM27 cells are seeded in 96-well plates. After 2 days in culture, BACE2 inhibitor is added in a range of concentrations as required by the assay and after a further two hours, doxycycline is added to a final concentration of 500 ng/ml. The cells are incubated for a further 46 hours and the supernatant harvested for detection of shed TMEM27.
An ELISA assay (using a pair of mouse anti-human-TMEM27 antibodies, raised against the extracellular domain of TMEM27) is used for detection of TMEM27 in the culture medium. An EC50 for BACE2 inhibition is calculated using the ELISA readout for each inhibitor concentration with standard curve-fitting software such as XLFit for the Excel spreadsheet program.

Among the data in US8673894B2 (Hoffmann-La Roche Inc., priority 2010, dated 2014) are IC50 values, retold here.

Counter-ions that a name gives are not always drawn.

On to `CC[C@@]1(c2cc(NC(=O)c3ccc(F)cn3)ccc2F)CCOCC(N)=N1` [Example 13, 5-Fluoro-pyridine-2-carboxylic acid [3-((S)-3-amino-5-ethyl-2,5,6,7-tetrahydro-[1,4]oxazepin-5-yl)-4-fluoro-phenyl]-amide], for which the IC50 in test [1] is 250 nM; in test [2], 44 nM.

As for `CC[C@]1(c2cc(NC(=O)c3ccc(F)cn3)ccc2F)N=C(N)COCC1(F)F` [Example 78, (R)-N-(3-(3-Amino-5-ethyl-6,6-difluoro-2,5,6,7-tetrahydro-1,4-oxazepin-5-yl)-4-fluorophenyl)-5-fluoropicolinamide], the IC50 was found to be 60 nM in test [1] and 74.3 nM in test [2].

Turning to `C[C@]1(c2cc(NC(=O)c3cnc(OCF)cn3)ccc2F)N=C(N)COCC1(F)F` [Example 103, (R)-N-(3-(3-Amino-6,6-difluoro-5-methyl-2,5,6,7-tetrahydro-1,4-oxazepin-5-yl)-4-fluorophenyl)-5-(fluoromethoxy)pyrazine-2-carboxamide formate], the IC50 in test [1] was 2.9 nM; in test [2] it was 307 nM.

As to `CCc1n[nH]c(C(=O)Nc2ccc(F)c([C@@]3(CC)N=C(N)COCC3(F)F)c2)c1C` [Example 93, (R)-N-(3-(3-Amino-5-ethyl-6,6-difluoro-2,5,6,7-tetrahydro-1,4-oxazepin-5-yl)-4-fluorophenyl)-3-ethyl-4-methyl-1H-pyrazole-5-carboxamide], the IC50 in test [1] was 510 nM; in test [2], 155000 nM.

Turning to `CC[C@]1(c2cc(NC(=O)c3nn(C(F)F)cc3Cl)ccc2F)N=C(N)COCC1(F)F` [Example 116, (R)-N-(3-(3-Amino-5-ethyl-6,6-difluoro-2,5,6,7-tetrahydro-1,4-oxazepin-5-yl)-4-fluorophenyl)-4-chloro-1-(difluoromethyl)-1H-pyrazole-3-carboxamide], the values for the IC50 in test [1] and in test [2] were 20 nM and 189 nM, respectively.

In the case of `CC[C@]1(c2cc(NC(=O)c3n[nH]cc3Cl)ccc2F)N=C(N)COCC1(F)F` [Example 86, (R)-N-(3-(3-Amino-5-ethyl-6,6-difluoro-2,5,6,7-tetrahydro-1,4-oxazepin-5-yl)-4-fluorophenyl)-4-chloro-1H-pyrazole-3-carboxamide], the values for the IC50 in test [1] and in test [2] were 370 nM and 491 nM, respectively.

On to `C[C@]1(c2cc(NC(=O)c3nn(CC(F)(F)F)cc3Cl)ccc2F)N=C(N)COCC1(F)F` [Example 106, (R)-N-(3-(3-Amino-6,6-difluoro-5-methyl-2,5,6,7-tetrahydro-1,4-oxazepin-5-yl)-4-fluorophenyl)-4-chloro-1-(2,2,2-trifluoroethyl)-1H-pyrazole-3-carboxamide], for which the IC50 was 630 nM in test [1] and 2170 nM in test [2].

On to `C[C@@]1(c2cc(NC(=O)c3ccccn3)ccc2F)CCOCC(N)=N1` [Example 7, Pyridine-2-carboxylic acid [3-((S)-3-amino-5-methyl-2,5,6,7-tetrahydro-[1,4]oxazepin-5-yl)-4-fluoro-phenyl]-amide], for which the half-inhibitory concentration (IC50) in test [1] turned out to be 16 nM; in test [2], 1.45 nM.

Take `C[C@]1(c2cc(NC(=O)c3ncccc3F)ccc2F)N=C(N)COCC1(F)F` [Example 27, (R)-N-(3-(3-amino-6,6-difluoro-5-methyl-2,5,6,7-tetrahydro-1,4-oxazepin-5-yl)-4-fluorophenyl)-3-fluoropicolinamide, salt with formic acid]: the 50% inhibitory concentration (IC50) in test [1] turned out to be 44 nM; in test [2] it was 58 nM.

Turning to `CC[C@]1(c2cc(NC(=O)c3ncc(Cl)cc3Cl)ccc2F)N=C(N)COCC1(F)F` [Example 83, (R)-N-(3-(3-Amino-5-ethyl-6,6-difluoro-2,5,6,7-tetrahydro-1,4-oxazepin-5-yl)-4-fluorophenyl)-3,5-dichloropicolinamide], the IC50 in test [1] worked out at 15 nM; in test [2], 19.7 nM.

Turning to `CC[C@]1(c2cc(NC(=O)c3nn(C)cc3Cl)ccc2F)N=C(N)COCC1(F)F` [Example 85, (R)-N-(3-(3-Amino-5-ethyl-6,6-difluoro-2,5,6,7-tetrahydro-1,4-oxazepin-5-yl)-4-fluorophenyl)-4-chloro-1-methyl-1H-pyrazole-3-carboxamide], the IC50 in test [1] amounted to 280 nM; in test [2], 29.2 nM.

With `CC[C@]1(c2cc(NC(=O)c3ccccn3)ccc2F)N=C(N)COCC1(F)F` [Example 75, (R)-N-(3-(3-amino-5-ethyl-6,6-difluoro-2,5,6,7-tetrahydro-1,4-oxazepin-5-yl)-4-fluorophenyl)picolinamide], the concentration for half-maximal inhibition (IC50) in test [1] is 410 nM; in test [2], 89.8 nM.

Turning to `NC1=N[C@@]2(c3cc(NC(=O)c4ccc(OCC(F)(F)F)cn4)ccc3F)C[C@H]2COC1` (racemic) [Example 2, 5-(2,2,2-Trifluoro-ethoxy)-pyridine-2-carboxylic acid [3-((1SR,7RS)-3-amino-5-oxa-2-aza-bicyclo[5.1.0]oct-2-en-1-yl)-4-fluoro-phenyl]-amide], the IC50 in test [1] was 2200 nM; in test [2], greater than 10000 nM.

As for `C[C@@]1(c2cc(NC(=O)c3ccc(F)cn3)ccc2F)CCOCC(N)=N1` [Example 9], the IC50 turned out to be 1.6 nM in test [1] and 10 nM in test [2].

Turning to `CC(C)Oc1ccc(C(=O)Nc2ccc(F)c([C@@]3(C)N=C(N)COCC3(F)F)c2)nc1` [Example 67, (R)-N-(3-(3-Amino-6,6-difluoro-5-methyl-2,5,6,7-tetrahydro-1,4-oxazepin-5-yl)-4-fluorophenyl)-5-isopropoxypicolinamide formate], the results for the IC50 in test [1] and in test [2] were 288 nM and 67400 nM, respectively.

For the compound `CC1(C)C[C@@](C)(c2cc(NC(=O)c3ccc(OCC(F)(F)F)cn3)ccc2F)N=C(N)CO1` [Example 18, 5-(2,2,2-Trifluoro-ethoxy)-pyridine-2-carboxylic acid [3-((S)-3-amino-5,7,7-trimethyl-2,5,6,7-tetrahydro-[1,4]oxazepin-5-yl)-4-fluoro-phenyl]-amide], the values for the IC50 in test [1] and in test [2] were 22 nM and 120 nM, respectively.

For `C[C@@]1(c2cc(NC(=O)C3(C(F)(F)F)CC3)ccc2F)CCOCC(N)=N1` [Example 17, 1-Trifluoromethyl-cyclopropanecarboxylic acid [3-((S)-3-amino-5-methyl-2,5,6,7-tetrahydro-[1,4]oxazepin-5-yl)-4-fluoro-phenyl]-amide], the values for the IC50 in test [1] and in test [2] were 920 nM and 400 nM, respectively.

On to `C[C@]1(c2cc(NC(=O)c3cnc(Cl)cn3)ccc2F)N=C(N)COCC1(F)F` [Example 38, (R)-N-(3-(3-amino-6,6-difluoro-5-methyl-2,5,6,7-tetrahydro-1,4-oxazepin-5-yl)-4-fluorophenyl)-5-chloropyrazine-2-carboxamide formate], for which the IC50 in test [1] is 55 nM; in test [2], 170 nM.

Turning to `Cn1cc(Cl)c(C(=O)Nc2ccc(F)c([C@@]3(C)N=C(N)COCC3(F)F)c2)n1` [Example 41, (R)-N-(3-(3-amino-6,6-difluoro-5-methyl-2,5,6,7-tetrahydro-1,4-oxazepin-5-yl)-4-fluorophenyl)-4-chloro-1-methyl-1H-pyrazole-3-carboxamide formate], the values for the IC50 in test [1] and in test [2] were 7.2 nM and 3 nM, respectively.

For orientation: IC50 means the point on the concentration scale where inhibition reaches its midpoint.
